According to paper PMC4795541, “A Rapid and Quantitative Flow Cytometry Method for the Analysis of Membrane Disruptive Antimicrobial Activity” (PLoS ONE, 2016):
Converted amounts (≈) assume the structure as drawn. Like-named read-outs stand apart in the source and are kept apart here. Marks after values point to notes of the source that are not given here. Where no end group is shown, it is not given here.

Columns and labels:
[1] = test system: A. baumannii strain 2208, ATCC 19606; conditions: A. baumannii strain 2208, ATCC 19606; 90 min incubation; average of 3 assays ± SD
Description: (§1) The bacterial strains; Fusobacterium nucleatum ATCC 25586, Streptococcus mutans Ingbritt, Staphylococcus aureus (MSSA) ATCC 29213; Staphylococcus aureus (MRSA) ATCC 43300; Enterococcus faecalis ATCC 29212; Enterobacter aerogenes ATCC 13048; Pseudomonas aeruginosa strain PAO1-LAC, ATCC 47085; Klebsiella pneumoniae ATCC 13883; Acinetobacter baumannii strain 2208, ATCC 19606; Escherichia coli ATCC 25922 lyophilised or glycerol stocks were obtained from the culture collection of the Oral Health Cooperative Research Centre, The Melbourne Dental School, University of Melbourne, Australia. These strains were selected for this study as they are widely used in antimicrobial studies and are considered to be important pathogens and major targets for antibiotic resistant studies. Bacteria were grown aerobically and maintained by passage at ambient temperature (E. coli, K. pneumoniae, A. baumannii and S. aureus strains) or at 37°C (P. aeruginosa, E. faecalis and E. aerogenes) on horse blood agar (10% v/v defibrinated horse blood, 4.4% w/v Oxoid Blood Agar Base No. 2). S. mutans and F. nucleatum were grown anaerobically (MK3 anaerobic workstation, Don Whitley Scientific Limited, England) and maintained by passage at 37°C on Todd Hewitt agar (3.6% w/v Oxoid Todd-Hewitt Broth, 1.5% w/v sucrose, 1.5% w/v BactoTM Agar, 0.8% w/v Oxoid Yeast Extract) or horse blood agar, respectively. For the antimicrobial peptide assays a 20 mL starter culture was produced by taking single colonies from blood or Todd Hewitt agar plates, respectively, to inoculate either: Luria Broth (LB; 1% w/v BactoTM Tryptone, 1% w/v NaCl, 0.5% w/v Oxoid Yeast Extract, pH 7.5, Thermo Scientific Pty, Ltd, Sydney, Australia) for bacteria; E. coli, K. pneumoniae, P. aeruginosa, A. baumannii, E. faecalis, E. aerogenes and S. aureus which were grown aerobically at 37°C, or Todd Hewitt broth (3.6% w/v Oxoid Todd-Hewitt Broth, 1.5% w/v sucrose, 0.8% w/v Oxoid Yeast 9 Extract) for S. mutans, or Brain Heart Infusion broth (BHI; 3.7% w/v Oxoid BHI, 0.05% w/v L-cysteine) for F. nucleatum which were both grown anaerobically at 37°C. After overnight incubation, 0.5–2.0 mL of the starter culture was used to inoculate the appropriate fresh broth (200 mL) and growth monitored at 650 nm using a spectrophotometer (model 275E; Perkin-Elmer, Sydney, Australia) with culture purity checked by microscopic examination and culture. Bacteria were harvested during late exponential growth phase and viability and bacteria/mL determined using a BacLight viability kit (Invitrogen, Sydney, Australia) and a Quanta SC-MPL flow cytometer (Beckman coulter Pty, Ltd, Sydney, Australia).
(§2) Antibacterial assays were undertaken to determinate the minimum inhibitory concentration (MIC), minimum bactericidal concentration (MBC) and minimum membrane disruptive concentration (MDC) of each of the antimicrobial peptides (AMP) and AMP analogues (S1 Table). For each bacterim a stock solution (2.5 × 10^6 cells/mL) in the respective media was made and an aliquot incubated with AMPs within 15 minutes from viable cell count and stock preparation. All AMPs were dissolved in DMSO and a 500 μM stock solution prepared by adding the respective media and serial dilutions (250–0.244 μM) of the AMP in media (100 μL/well) made just prior addition of bacteria. […] One hundred microliter aliquots of the bacterial stock solution (2.5 × 10^5 cells/well) were added to the AMP serial dilutions and incubated at 37°C for 90 min. Assay preparation and incubations were conducted in aerobic or anaerobic conditions dependent on the bacteria. Bacteria were also incubated in the absence of AMP to serve as a growth control for the assay. After the 90 minute incubation period the antimicrobial activity (MIC, MBC and MDC) was determined as follows;
(§3) For MIC the CLSI broth microdilution assay was followed as we have previously described.

[2] = test system: E. aerogenes ATCC 13048; conditions: E. aerogenes ATCC 13048; 90 min incubation; average of 3 assays ± SD
Description: as §1, §2, §3

[3] = test system: E. coli ATCC 25922; conditions: E. coli ATCC 25922; 90 min incubation; average of 3 assays ± SD
Description: as §1, §2, §3

[4] = test system: E. faecalis ATCC 29212; conditions: E. faecalis ATCC 29212; 90 min incubation; average of 3 assays ± SD
Description: as §1, §2, §3

[5] = test system: K. pneumoniae ATCC 13883; conditions: K. pneumoniae ATCC 13883; 90 min incubation; average of 3 assays ± SD
Description: as §1, §2, §3

[6] = test system: P. aeruginosa strain PAO1-LAC, ATCC 47085; conditions: P. aeruginosa PAO1-LAC, ATCC 47085; 90 min incubation; average of 3 assays ± SD
Description: as §1, §2, §3

[7] = test system: S. aureus (MRSA) ATCC 43300; conditions: S. aureus (MRSA) ATCC 43300; 90 min incubation; average of 3 assays ± SD
Description: as §1, §2, §3

[8] = test system: S. aureus (MSSA) ATCC 29213; conditions: S. aureus (MSSA) ATCC 29213; 90 min incubation; average of 3 assays ± SD
Description: as §1, §2, §3

[9] = test system: A. baumannii strain 2208, ATCC 19606; conditions: A. baumannii strain 2208, ATCC 19606; 90 min incubation; average of 3 assays ± SD; remark: listed apart in the source
Description: as §1, §2
(§4) For determination of MBC, the CLSI protocol was followed, with the modifications being that due to the rapid action of the AMPs the assay incubation time was shortened from 16–20 hours to 90 minutes.

[10] = test system: E. aerogenes ATCC 13048; conditions: E. aerogenes ATCC 13048; 90 min incubation; average of 3 assays ± SD; remark: listed apart in the source
Description: as §1, §2, §4

[11] = test system: E. coli ATCC 25922; conditions: E. coli ATCC 25922; 90 min incubation; average of 3 assays ± SD; remark: listed apart in the source
Description: as §1, §2, §4

[12] = test system: E. faecalis ATCC 29212; conditions: E. faecalis ATCC 29212; 90 min incubation; average of 3 assays ± SD; remark: listed apart in the source
Description: as §1, §2, §4

[13] = test system: K. pneumoniae ATCC 13883; conditions: K. pneumoniae ATCC 13883; 90 min incubation; average of 3 assays ± SD; remark: listed apart in the source
Description: as §1, §2, §4

[14] = test system: P. aeruginosa strain PAO1-LAC, ATCC 47085; conditions: P. aeruginosa PAO1-LAC, ATCC 47085; 90 min incubation; average of 3 assays ± SD; remark: listed apart in the source
Description: as §1, §2, §4

[15] = test system: S. aureus (MRSA) ATCC 43300; conditions: S. aureus (MRSA) ATCC 43300; 90 min incubation; average of 3 assays ± SD; remark: listed apart in the source
Description: as §1, §2, §4

[16] = test system: S. aureus (MSSA) ATCC 29213; conditions: S. aureus (MSSA) ATCC 29213; 90 min incubation; average of 3 assays ± SD; remark: listed apart in the source
Description: as §1, §2, §4

[17] = test system: F. nucleatum ATCC 25586
Description: as §1, §2, §3

[18] = test system: S. mutans Ingbritt
Description: as §1, §2, §3

[19] = test system: F. nucleatum ATCC 25586; remark: listed apart in the source
Description: as §1, §2, §4

[20] = test system: S. mutans Ingbritt; remark: listed apart in the source
Description: as §1, §2, §4

[21] = test system: sheep red blood cells; assay: Hemolysis assay; format: cell-based
Procedure: Fresh sheep red blood cells in Alsever’s solution (RBCs, Equicell, Victoria, Australia) were diluted 1 in 20 in PBS (pH 7.4), pelleted by centrifugation, and washed three times in PBS (1000 g, 10 min). The RBCs were counted using a cell counter (Coulter Particle Counter Z series, Beckman Coulter) and diluted to a final concentration of 2 × 10^7 cells/mL. […] Following incubation, the RBCs were pelleted centrifuged (1000 g, 10 min) and the amount of haemoglobin in 100 μL aliquots determined by measuring the absorbance at 405 nm using a microplate reader (PerkinElmer 1420 Multilabel Counter VICTOR3). Positive and negative controls for hemolysis were taken as RBC lysed with 0.5% Triton X-100 (1:1 v/v) and RBC suspension in PBS, respectively. The percentage of hemolysis was calculated using the following formula: % Hemolysis = [(A405 test sample—A405 negative control) / (A405 positive control—A405 negative control)] × 100
The percentage hemolysis was plotted against peptide concentration and linear regression analysis was used to determine the hemolytic concentration needed to lyse 50% (HC50) of RBCs.

[22] = test system: HEK-293 (ATCC CRL-1573) cells; assay: Inhibition of cell proliferation assay (MTS); format: cell-based
Procedure: After 28 h, 20 μL of 3-(4,5-dimethylthiazol-2-yl)-5-(3-carboxymethoxyphenyl)-2-(4-sulfophenyl)-2H-tetrazolium (MTS) solution (CellTiter 96 AQueous Non-Radioactive Cell Proliferation Assay kit, Promega) were added to each well and the plates were incubated for a further 1–2 h at 37°C, 5% CO2 incubator. Cell proliferation was determined by measuring absorbance at 490 nm using a microplate reader (PerkinElmer 1420 Multilabel Counter VICTOR3). Positive and negative controls for inhibition were taken as HEK-293 cells incubated with mytomycin C (5 μg/mL, Sigma Pty Ltd) and HEK-293 cells incubated in media alone, respectively. The percentage of inhibition was calculated using the following formula: % Inhibition = [(A490 test sample—A490 negative control) / (A490 positive control—A490 negative control)] × 100
The percentage of inhibition was plotted against peptide concentration and linear regression analysis was used to determine the AMP concentration needed to inhibit 50% (IC50) of the HEK-293 cells.

GLLSVLGSVAKHVLPHVVPVIAEHL-NH2 [Caerin 1.1]
MIC [1]: 3.1 ± 0.4 µM | MIC [2]: 40.0 ± 8.2 µM | MIC [3]: 8.45±0.2^e μM | MIC [4]: 27.1 ± 15.0 µM | MIC [5]: 14.6 ± 5.1 µM | MIC [6]: 39.3 ± 21.4 µM | MIC [7]: 4.9±0.4^e μM | MIC [8]: 5.5±0.2^e μM | MBC [9]: 3.0 ± 1.0 µM | MBC [10]: 51.1 ± 6.3 µM | MBC [11]: 15.6 ± 0.4 µM | MBC [12]: 17.5 ± 10.6 µM | MBC [13]: 20.0 ± 7.1 µM | MBC [14]: 51.4 ± 27.1 µM | MBC [15]: 13.9 ± 2.4 µM | MBC [16]: 9.9 ± 2.3 µM

CC[C@H](C)[C@H](NC(=O)CN)C(=O)NCC(=O)N[C@@H](C)C(=O)N[C@H](C(=O)N[C@@H](CC(C)C)C(=O)N[C@@H](CCCCN)C(=O)N[C@H](C(=O)N[C@@H](CC(C)C)C(=O)N[C@H](C(=O)N[C@H](C(=O)NCC(=O)N[C@@H](CC(C)C)C(=O)N1CCC[C@H]1C(=O)N[C@@H](C)C(=O)N[C@@H](CC(C)C)C(=O)N[C@H](C(=O)N[C@@H](CO)C(=O)N[C@@H](Cc1c[nH]c2ccccc12)C(=O)N[C@H](C(=O)N[C@@H](CCCCN)C(=O)N[C@@H](CCCNC(=N)N)C(=O)N[C@@H](CCCCN)C(=O)N[C@@H](CCCNC(=N)N)C(=O)N[C@@H](CCC(N)=O)C(=O)N[C@@H](CCC(N)=O)C(N)=O)[C@@H](C)CC)[C@@H](C)CC)[C@@H](C)O)[C@@H](C)O)C(C)C)C(C)C [Melittin]
MIC ([17]; F. nucleatum ATCC 25586, 2.5 × 10^5 cells/well, 90 min peptide/bacteria incubation at 37°C, then growth at OD650, average of 3 assays ± SD): 4.4 ± 0.3 µM (≈ 12.5 µg/mL) | average MIC/MBC value ([17]; F. nucleatum, average of MIC and MBC): 4.0 µM | MIC ([18]; S. mutans Ingbritt, 90 min peptide/bacteria incubation at 37°C, then growth at OD650, average of 3 assays ± SD): 6.1 ± 0.9 µM (≈ 17.4 µg/mL) | MBC ([19]; F. nucleatum ATCC 25586, 90 min peptide/bacteria incubation, CFU on agar, ≥ 99.9% reduction, average of 3 assays ± SD): 3.8 ± 0.4 µM (≈ 10.8 µg/mL) | MBC ([20]; S. mutans Ingbritt, 90 min peptide/bacteria incubation, CFU on agar, ≥ 99.9% reduction, average of 3 assays ± SD): 4.2 ± 2.4 µM (≈ 12 µg/mL)

GIGKFLHAAKKFAKAFVAEIMNS-NH2 [Ala-Magainin]
MIC ([17]; ATCC 25586, 24 h): 0.6±0.1^c μM | MIC ([18]; Ingbritt, 24 h): 7.1±0.7^c μM | MBC ([19]; ATCC 25586): 0.4±0.1^c μM | MBC ([20]; Ingbritt): 3.4±0.5^c μM | Therapeutic Index (hemolysis) ([21]; HC50/MDC50 (F. nucleatum), given as x : 1): 24 : 1 | Hemolysis (HC50) ([21]; pH 7.4): 9.6 ± 0.9 µM | IC50 ([22]; HEK-293 cells 5×10^3, EMEM + 10% FBS, 28 h, MTS, A490, linear regression, maximum peptide concentration = 1000 µM): 5.6 ± 1.4 µM | Therapeutic Index (proliferation) ([22]; IC50/MDC50 (F. nucleatum), given as x : 1): 14.0 : 1
